Laboratory results: patent US20260098017A1, “NOVEL AROMATIC RING DERIVATIVE CONTAINING AMIDE SUBSTITUTION AND USE THEREOF” (TIANJIN PHARMACEUTICAL BIOTECHNOLOGY CO., LTD., priority 2022, published 2026)
pIC50: −log10 of the molar value.

Tests used:
[1] = biological target: JAK1 JH1 kinase (Homo sapiens, UniProt P23458); test: JAK1 JH1 enzyme assay in vitro (TR-FRET); type: biochemical; conditions: read-out: JAK 1 JH1 IC50
[2] = biological target: TYK2 JH2 pseudokinase (Homo sapiens, UniProt P29597); test: TYK2 JH2 enzyme binding assay in vitro (TR-FRET)
Chain of TYK2 JH2 pseudokinase (P29597 589-875 limits assumed): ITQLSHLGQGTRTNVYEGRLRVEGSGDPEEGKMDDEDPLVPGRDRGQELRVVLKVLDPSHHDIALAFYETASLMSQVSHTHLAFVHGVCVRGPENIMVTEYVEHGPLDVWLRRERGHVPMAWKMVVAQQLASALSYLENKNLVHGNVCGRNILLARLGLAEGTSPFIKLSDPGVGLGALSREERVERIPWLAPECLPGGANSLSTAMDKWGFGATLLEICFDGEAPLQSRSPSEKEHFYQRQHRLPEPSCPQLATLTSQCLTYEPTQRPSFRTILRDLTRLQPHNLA
Method: Instrumentation: Envision microplate reader (PerkinElmer), ECHO550 (LABCYTE).
Method: the inhibitory effects of compounds on TYK2 JH2 pseudokinase was tested using time-resolved fluorescence resonance energy transfer (TR-FRET) method.
Procedure: compounds were prepared into 10 mM stock solutions using DMSO, which were further diluted into compound dilutions (200×) with different concentration gradients in DMSO, and the compound dilutions (200×) were transferred to a 384-well assay plate using an Echo instrument. […] TYK2 JH2 pseudokinase, Tb antibody, and Tracer working solutions were prepared using the dilution buffer, respectively. 5 uL of TYK2 JH2 pseudokinase working solution (final concentration 0.5 nM) was added to a 384-well assay plate, and centrifuged at 1000 rpm for 30 s. 5 uL of Tb antibody (final concentration 1×) was added to the 384-well assay plate, and centrifuged at 1000 rpm for 30 s. 5 uL of Tracer (final concentration 0.5 nM) was added to the 384-well assay plate, and centrifuged at 1000 rpm for 30 s. Incubation was performed at room temperature for 60 min, and then at 4° C. overnight.
Data Analysis: XLfit, a software developed by IDBS and integrated into the Microsoft Excel environment, was used to process and analyze the test data.

[3] = biological target: JAK3 JH1 kinase (Homo sapiens, UniProt P52333); test: JAK3 JH1 enzyme assay in vitro (TR-FRET); type: biochemical; conditions: TR-FRET; read-out: JAK 3 JH1 IC50
Chain of JAK3 JH1 kinase (P52333 822-1111 limits assumed): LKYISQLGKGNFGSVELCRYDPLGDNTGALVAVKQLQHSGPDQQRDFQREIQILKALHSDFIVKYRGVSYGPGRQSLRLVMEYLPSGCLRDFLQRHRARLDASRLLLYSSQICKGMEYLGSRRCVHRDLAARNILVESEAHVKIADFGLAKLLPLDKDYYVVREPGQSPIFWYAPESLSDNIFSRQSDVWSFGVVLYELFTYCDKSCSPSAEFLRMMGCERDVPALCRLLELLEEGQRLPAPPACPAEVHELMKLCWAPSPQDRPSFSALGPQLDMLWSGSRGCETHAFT

[4] = biological target: JAK1 JH2 pseudokinase (Homo sapiens, UniProt P23458); test: JAK1 JH2 enzyme binding assay in vitro (TR-FRET); conditions: read-out: JAK 1 JH2 IC50
Chain of JAK1 JH2 pseudokinase (P23458 583-855 limits assumed): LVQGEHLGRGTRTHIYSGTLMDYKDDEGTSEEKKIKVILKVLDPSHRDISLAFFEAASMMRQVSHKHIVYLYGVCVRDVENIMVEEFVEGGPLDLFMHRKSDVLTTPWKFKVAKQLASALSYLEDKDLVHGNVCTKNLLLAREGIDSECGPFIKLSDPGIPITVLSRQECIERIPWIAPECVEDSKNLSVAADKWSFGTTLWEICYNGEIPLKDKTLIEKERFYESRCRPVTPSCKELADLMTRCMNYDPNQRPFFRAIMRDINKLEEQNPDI
Method: Instrumentation: Envision microplate reader (PerkinElmer), Echo (LABCYTE)
Method: in this experiment, the inhibitory effects of compounds on JAK1 JH2 pseudokinase was tested using time-resolved fluorescence resonance energy transfer (TR-FRET) method.
Procedure: compounds were prepared into 10 mM stock solutions using DMSO, which were further diluted into compound dilutions with different concentration gradients in DMSO, and the compound dilutions with 200× final concentration were transferred to a 384-well assay plate using an Echo instrument. The preparation of the following 1× assay working solution: HEPES pH7.5 at a final concentration of 20 mM, MgCl2 at a final concentration of 10 mM, Brij-35 at a final concentration of 0.015%, DTT at a final concentration of 2 mM, BSA at a final concentration of 50 ug/mL. JAK1 JH2 pseudokinase with 3× final concentration, Tb antibody and Tracer were prepared using their respective 1× working solution. 5 uL of JAK1 JH2 pseudokinase was added to a 384-well assay plate, and centrifuged at 1000 rpm for 30 s. 5 uL of Tb antibody was added to the 384-well assay plate, and centrifuged at 1000 rpm for 30 s. 5 uL of Tracer was added to the 384-well assay plate, and centrifuged at 1000 rpm for 30 s. Incubation was performed at room temperature for 60 min, and then at 4° C. overnight. Finally, the 495 nm/520 nm fluorescence signal ratio was measured using the Envision microplate reader (PerkinElmer).
Data Analysis: XLfit, a software developed by IDBS and integrated into the Microsoft Excel environment, was used to process and analyze the test data. […] Thereafter, the concentration and corresponding inhibition rate data were imported into the XLfit software, and the Dose Response One Site 205 model within the software was employed to fit the inhibition rate-concentration curve by four-parameter method, and the IC50 value of the compound was calculated.

[5] = biological target: Ba/F3 cell line expressing TYK2 (Homo sapiens, UniProt P29597, cells depend on it, form not given); test: In vitro cellular inhibition assay (Ba/F3 cell proliferation, CellTiter-Glo); type: cell-based; conditions: read-out: IC50 (the source's name)
How it was run: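 Ba/F3 cells dependent on TYK2 were exposed to serially diluted compound, then viability was read by CellTiter-Glo luminescence. Inhibition (%) was calculated from RLU relative to max and min controls, and IC50 was obtained by curve fitting.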

[6] = tested on: SD rats; test: Four-week repeat-dose toxicity study in rats; type: in vivo; conditions: rat, 28 days, 2% cream 500 mg bid topical, 100 mg/kg
Method: Each group contained 10 animals, with an equal number of males and females.
The treatment lasted for four consecutive weeks (28 days).
• Daily clinical observation and body weight measurement; • After the last administration, rats were fasted for more than 16 h, anesthetized on the next day, and blood was collected from abdominal aorta. Tests such as hematology (EDTA-2K anticoagulation), blood biochemistry (serum), coagulation function (separated plasma with sodium citrate anticoagulation) and the like were respectively carried out; • After euthanization of the animals, the tissue organs were dissected and observed in general, and organ weights and coefficients (heart, liver, spleen, kidney, thymus) were determined; • The skin and lung tissues of the administration site were taken for HE staining to observe the changes in epidermal thickness, dermal inflammatory cells and pulmonary lesions.

Chain of JAK1 JH1 kinase (P23458 875-1153 limits assumed): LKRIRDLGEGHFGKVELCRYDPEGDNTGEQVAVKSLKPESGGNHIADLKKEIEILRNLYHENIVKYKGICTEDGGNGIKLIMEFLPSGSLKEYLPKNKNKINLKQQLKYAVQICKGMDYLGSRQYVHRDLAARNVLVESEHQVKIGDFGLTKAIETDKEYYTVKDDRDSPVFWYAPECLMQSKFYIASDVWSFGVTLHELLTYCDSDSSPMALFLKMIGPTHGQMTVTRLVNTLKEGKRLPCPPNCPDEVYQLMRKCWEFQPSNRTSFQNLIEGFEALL

In the case of `[2H]C([2H])([2H])NC(=O)c1nnc(NC(=O)C2CC2)cc1Nc1cccc(C(=O)Nc2cccc(C)c2)c1OC` [Example 3], the pIC50 [1] was under 5.00, the pIC50 [2] was 9.56 and the pIC50 [3] was under 5.00. For the same compound, the pIC50 [4] was 8.01, the GI50 [5] was 1 to 5 nM and the “Effects on general state, body weight, organ coefficient, skin and pulmonary pathology, and other hematological, coagulation and blood biochemical indicators” value [6] was “no significant effects”. For the same compound, the “Hematology Gran” value [6] was 1.7 ± 1.0 ×10^9/L, the “Hematology Lymph” value [6] was 6.4 ± 2.7 ×10^9/L and the “Hematology Mono” value [6] was 0.2 ± 0.1 ×10^9/L. The “Hematology PLT” value [6] was 1001.8 ± 408.1 ×10^9/L.
